Patent publication US20170001988A1, “PIPERIDINE AND PIPERAZINE DERIVATIVES AND THEIR USE IN TREATING VIRAL INFECTIONS AND CANCER” (THE UNITED STATES OF AMERICA, AS REPRESENTED BY THE …, priority 2013, published 2017)

What was measured:
HCV replicon GT 2a = type: cell-based; conditions: for inhibitory effect in replicon GT 2a cell line: 10 μM, luciferase 48 h
HCVsc, genotype 2a = type: cell-based, HCV; conditions: for inhibitory activity in the HCVsc infection level: 10 μM, Huh 7.5.1 cells, luciferase 48 h
Dengue RVP = experiment: Dengue Reporter Virus Particles (RVPs) reproducibility assay; conditions: increasing concentrations; Huh 7.5.1 cells; luciferase 48 h
Protocol: Huh 7.5.1 cells seeded in 96-well plates (10^4 cells/well) were cultured overnight. […] The results are means of three replicates ±SEM.

[1] = tested on: HCVcc, genotype 2a, JFH-1 strain; experiment: HCVcc assay, extracellular and intracellular viral RNA by quantitative real-time PCR; type: cell-based, HCV; conditions: for extracellular viral RNA level / intracellular viral RNA level: compound at 10 μM, Huh 7.5.1 cells, 48 h, vs DMSO
Protocol: Huh 7.5.1 cells were seeded in 12-well plates (10^5 cells/well) and cultured overnight. HCVcc was used to infect the cells with the treatment of compounds at 10 μM. Virus-containing medium was removed after 4 h incubation and compound treatment was added back followed by incubation for additional 48 h. Intracellular and extracellular viral RNA levels were evaluated by quantitative real-time PCR. The results are illustrated in FIG. 1 and are the means of three replicates ±SEM. […] Cyclosporin A at 10 μM was used as positive control.
Cell Culture-derived HCV (HCVcc, genotype 2a, JFH-1 strain) system provides direct evidence of anti-HCV activity of the compounds.
(§1) Cell Culture-derived HCV (HCVcc, genotype 2a, JFH-1 strain) system provides direct evidence of anti-HCV activity of the compounds. Determination of both extracellular and intracellular HCV levels can help evaluate whether the compounds interfere early-stage or late-stage infection. […] Cyclosporin A was tested in parallel to serve as control compound targeting early-stage HCV infection. […] At the highest concentration, cyclosporin A caused approximately 4-log fold reduction in intracellular RNA copies, while the extracellular level reduced less than […]. On the contrary, NCGC00345021 led to only about 1-log fold decrease in intracellular RNA copies when causing 3-log fold reduction in extracellular RNA level. Clearly, when the concentration increased, NCGC00345021 led to a more dramatic reduction in extracellular RNA copies.

HCV-Luc = HCV-Luc infection assay; type: cell-based; conditions: Hepatitis C virus; for EC50: Table 3, read-out: EC50
GT 2a replicon RNA = experiment: Transient replicon assay, GT 2a; type: cell-based, HCV
[2] = tested on: HCVcc, genotype 2a, JFH-1 strain; experiment: TCID50 determination: re-infection of naive Huh 7.5.1 cells with medium from the HCVcc assay; type: cell-based, HCV; conditions: medium with extracellular virus used to re-infect naive Huh 7.5.1 cells
Protocol: FIG. 4B illustrates the TCID50 of naïve Huh 7.5.1 cells that were infected using medium collected in the HCVcc assay run using 0.32, 1.0, and 3.2 μM concentrations of NCGC00345021 and 0.032, 0.10 and 0.32 μM concentrations of Cyclosporin A.
as §1

HCVpp GT 1a = type: cell-based, HCV; conditions: for inhibitory activity in HCVpp GT 1a: 10 μM, Huh 7.5.1 cells
VSVpp = type: cell-based
replicon GT 1a = experiment: Transient replicon assay, GT 1a; type: cell-based, HCV; conditions: 10 μM; 48 h; Huh7.5.1 cells
HCV replicon GT 1b = type: cell-based; conditions: 10 μM; luciferase 48 h
HCVpp GT 1b = type: cell-based, HCV; conditions: 10 μM; Huh 7.5.1 cells
Huh7.5.1 cells = experiment: in vitro; conditions: human
From the text: (§2) EC50 was generated using the HCV-Luc infection assay and IC50 using the ATPLite assay.
(§3) EC50 was generated using the HCV-Luc infection assay and TC50 using the ATPLite assay.
(§4) The cytotoxicity of the compounds was further evaluated in HepG2 cells and primary human hepatocytes.

[3] = ATPLite cytotoxicity assay; conditions: human, Huh7.5.1 cells
From the text: as §2, §3, §4

[4] = ATPlite assay run in parallel with the combination HCV-Luc assay; type: cell-based; conditions: (S)-CCZ combined with anti-HCV drugs
Protocol: Combination of ribavirin and peginterferon α (IFN-α) has been the standard of care to treat chronic HCV infection for many years. Direct-acting antivirals, such as telaprevir and daclatasvir, were recently approved for therapy of hepatitis C. The combination of (S)-CCZ with these different classes of anti-HCV drugs is described in this example. HCV-Luc assay in parallel with ATPlite assay was performed in the presence of various concentrations of (S)-CCZ in combination with various concentrations of each drug. Using the MacSynergy II program based on Bliss independence model, three-dimensional surface plots were generated and log volume of synergism was calculated for each combination. The results were also analyzed with the CalcuSyn program, in which the combination indices were calculated.

HCV genotype 2a = type: in vivo, mice
HCV genotype 1b = type: in vivo, mice

For COc1ccc(CN2CCC(N(CCc3ccccc3)Cc3ccccc3)CC2)c(OC)c1 [NCGC00345021, N-Benzyl-1-(2,4-dimethoxybenzyl)-N-phenethylpiperidin-4-amine], the “inhibitory effect in replicon GT 2a cell line” value (HCV replicon GT 2a) was “did not show any inhibitory effect”, the “% RLU at 10 μM, HCV subgenomic replicon GT 2a cell line” value (HCV replicon GT 2a; mean of five replicates ±SEM) was 54.4 ± 2.96 % RLU and the “inhibitory activity in the HCVsc infection level” value (HCVsc, genotype 2a) was “no significant inhibitory activities”. The “% RLU at 10 μM, HCVsc” value (HCVsc, genotype 2a; mean of five replicates ±SEM) was 104 ± 9.95 % RLU, the “Dengue RVP reproducibility” value (Dengue RVP) was “dose-dependent inhibition” and the “reduction in extracellular RNA level” value ([1]; at the highest concentration) was 3 log fold. The “reduction in intracellular RNA copies” value ([1]; at the highest concentration) was “about 1 log fold”, the inhibition at 0.01 µM (HCV-Luc; at 10 nM) was > 90% and the “inhibition of viral replication, transient GT 2a replicon” value (GT 2a replicon RNA; 10 μM, Huh 7.5.1 cells) was “modest inhibition”. For the same molecule, the “% RLU at 10 μM, HCV subgenomic replicon Transient GT 2a” value (GT 2a replicon RNA; mean of five replicates ±SEM) was 139 ± 16.4 % RLU, the TCID50 values [2] was “dose-dependent reduction” and the “inhibitory activity in HCVpp GT 1a” value (HCVpp GT 1a) was “low inhibitory activity”. For the same molecule, the “% RLU at 10 μM, HCVpp GT 1a” value (HCVpp GT 1a; mean of five replicates ±SEM) was 66.3 ± 9.49 % RLU, the “% RLU at 10 μM, VSVpp” value (VSVpp) was 103 ± 6.73 % RLU and the “inhibition on VSVpp” value (VSVpp; 10 μM) was “no inhibition”.
For CN1CCN([C@H](c2ccccc2)c2ccc(Cl)cc2)CC1 [(R)-CCZ, (R)-1-((4-Chlorophenyl)(phenyl)methyl)-4-methylpiperazine], the “inhibition in transient replicon GT 1a” value (replicon GT 1a) was “no inhibition was observed”, the “inhibitory effect in replicon GT 2a cell line” value (HCV replicon GT 2a) was “did not show much inhibitory effect” and the “inhibitory activity in the HCVsc infection level” value (HCVsc, genotype 2a) was “significant inhibitory activities”. For the same molecule, the “inhibitory effect in replicon GT 1b cell line” value (HCV replicon GT 1b) was “did not show much inhibitory effect”, the “inhibitory activity in HCVpp GT 1b” value (HCVpp GT 1b) was “None of racemic, (R) and (S)-CCZ showed any inhibitory activities” and the “extracellular viral RNA level” value [1] was “reduced”. For the same molecule, the “intracellular viral RNA level” value [1] was “reduced”, the EC50 (HCV-Luc) was 0.02 ± 0.005 µM and the “inhibitory activity in HCVpp GT 1a” value (HCVpp GT 1a) was “None of racemic, (R) and (S)-CCZ showed any inhibitory activities”. The CC50 (Huh7.5.1 cells) was 37.5 ± 4.2 µM.
In the case of CN1CCN(C(c2ccccc2)c2ccc(Cl)cc2)CC1 (racemic) [racemic CCZ, 1-((4-Chlorophenyl)(phenyl)methyl)-4-methylpiperazine, reference compound], the “inhibition in transient replicon GT 1a” value (replicon GT 1a) is reported as “no inhibition was observed”, the “inhibitory effect in replicon GT 2a cell line” value (HCV replicon GT 2a) is reported as “did not show much inhibitory effect” and the “inhibitory activity in the HCVsc infection level” value (HCVsc, genotype 2a) is reported as “significant inhibitory activities”. The “inhibitory effect in replicon GT 1b cell line” value (HCV replicon GT 1b) was “did not show much inhibitory effect”, the “inhibitory activity in HCVpp GT 1b” value (HCVpp GT 1b) was “None of racemic, (R) and (S)-CCZ showed any inhibitory activities” and the “extracellular viral RNA level” value [1] was “reduced”. The “intracellular viral RNA level” value [1] was “reduced”, the EC50 (HCV-Luc) was 0.044 ± 0.011 µM and the “inhibitory activity in HCVpp GT 1a” value (HCVpp GT 1a) was “None of racemic, (R) and (S)-CCZ showed any inhibitory activities”. For the same molecule, the CC50 [3] was 49.8 ± 17.2 µM.
With CN1CCN([C@@H](c2ccccc2)c2ccc(Cl)cc2)CC1 [(S)-CCZ, (S)-1-((4-Chlorophenyl)(phenyl)methyl)-4-methylpiperazine] the “inhibition in transient replicon GT 1a” value (replicon GT 1a) was “no inhibition was observed”, the “inhibitory effect in replicon GT 2a cell line” value (HCV replicon GT 2a) was “did not show much inhibitory effect” and the “cytotoxicity of the combinations” value [4] was “without significant cytotoxicity”. The “inhibitory activity in the HCVsc infection level” value (HCVsc, genotype 2a) was “significant inhibitory activities”, the “reduction of HCV titer from pretreatment baseline, genotype 2a” value (HCV genotype 2a; 50 mg/kg and 10 mg/kg daily, 6-week treatment) was 1.5 log and the “HCV titers during the treatment period (drug resistance), genotype 2a” value (HCV genotype 2a; during treatment) was “continued to decline during the treatment period without rebound”. The “inhibitory effect in replicon GT 1b cell line” value (HCV replicon GT 1b) was “did not show much inhibitory effect”, the “inhibitory activity in HCVpp GT 1b” value (HCVpp GT 1b) was “None of racemic, (R) and (S)-CCZ showed any inhibitory activities” and the “extracellular viral RNA level” value [1] was “reduced”. The “intracellular viral RNA level” value [1] was “reduced”, the EC50 (HCV-Luc) was 0.024 ± 0.009 µM and the “decrease of genotype 1b virus titer” value (HCV genotype 1b; 2 mg/kg daily) was “approximately 1 log”. For the same molecule, the “reduction of HCV titer from pretreatment baseline, genotype 1b” value (HCV genotype 1b; 50 mg/kg and 10 mg/kg daily, 4 weeks of treatment) was 2 log, the “HCV titers during the treatment period (drug resistance), genotype 1b” value (HCV genotype 1b; during treatment) was “continued to decline during the treatment period without rebound” and the “inhibitory activity in HCVpp GT 1a” value (HCVpp GT 1a) was “None of racemic, (R) and (S)-CCZ showed any inhibitory activities”. For the same molecule, the CC50 (Huh7.5.1 cells) was 33.4 ± 2.4 µM.
